In ChEMBL document CHEMBL5096153, “Spirocyclic Scaffolds in Medicinal Chemistry” (J Med Chem, 2021):
pEC50, pIC50, pKd: −log10 of the molar value.

How the values were obtained:
[1] = Selectivity ratio of Ki for rat liver Sigma2 receptor to Ki for Guinea pig brain Sigma1 receptor
[2] = molecular target: T1, Retinoic acid receptor RXR-alpha (Homo sapiens, UniProt P19793); experiment: Agonist activity at RXRalpha (unknown origin) using fluorescein-D22 as substrate by fluorescence polarization assay
T1 sequence (P19793 whole entry): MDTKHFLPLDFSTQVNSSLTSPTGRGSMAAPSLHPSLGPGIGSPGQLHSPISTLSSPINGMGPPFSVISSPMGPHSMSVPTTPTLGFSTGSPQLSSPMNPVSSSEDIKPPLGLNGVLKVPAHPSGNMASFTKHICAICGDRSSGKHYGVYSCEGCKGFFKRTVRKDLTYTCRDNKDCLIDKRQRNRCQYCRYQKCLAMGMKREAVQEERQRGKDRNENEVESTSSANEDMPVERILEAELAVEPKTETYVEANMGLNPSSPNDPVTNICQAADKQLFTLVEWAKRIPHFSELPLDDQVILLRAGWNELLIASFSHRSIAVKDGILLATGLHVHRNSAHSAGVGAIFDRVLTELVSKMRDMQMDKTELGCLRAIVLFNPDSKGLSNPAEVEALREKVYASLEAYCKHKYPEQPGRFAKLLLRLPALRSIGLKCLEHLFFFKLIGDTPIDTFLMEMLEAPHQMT

[3] = Inhibition of Plasmodium vivax SHMT
MDA-MB-231 = experiment: Cytotoxicity against human MDA-MB-231 cells assessed as cell growth inhibition; assay type: functional, cell-based
[4] = molecular target: Phosphoglycerate mutase 1 (Homo sapiens, UniProt P18669); experiment: Inhibition of PGAM1 in human MDA-MB-231 cells; assay type: cell-based
Chain of Phosphoglycerate mutase 1 (P18669 whole entry): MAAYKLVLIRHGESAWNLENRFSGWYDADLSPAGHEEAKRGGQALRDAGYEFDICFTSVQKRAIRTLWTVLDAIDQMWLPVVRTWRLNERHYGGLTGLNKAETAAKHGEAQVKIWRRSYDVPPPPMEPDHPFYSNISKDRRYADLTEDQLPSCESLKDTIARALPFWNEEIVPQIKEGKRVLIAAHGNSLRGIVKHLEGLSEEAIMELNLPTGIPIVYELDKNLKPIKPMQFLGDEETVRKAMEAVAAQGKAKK

[5] = AUC (0 to 4 hrs) in rat at 5 mg/kg, po; assay type: ADME, organism-based; set-up: time < 4 hr, dose 5 mg/kg, route po; details: in vivo
[6] = Volume of distribution in rat at 2 mg/kg, iv; assay type: ADME, organism-based; details: in vivo
[7] = Octanol-water partition coefficient, log P of the compound by LC-MS/MS analysis; assay type: physicochemical
[8] = Metabolic stability in human liver microsomes assessed as compound remaining; assay type: ADME, Microsome
Influenza A virus = experiment: Antiviral activity against wild-type Influenza A virus A/M2 assessed as viral growth inhibition; assay type: functional, organism-based
[9] = molecular target: T2, Retinoic acid receptor RXR-alpha (Homo sapiens) (UniProt P19793); experiment: Agonist activity at RXRalpha (unknown origin) using fluorescein-D22 as substrate by fluorescence polarization assay relative to control
T2 sequence (whole entry): T1 sequence (P19793 whole entry)

[10] = Cytotoxicity against human HUVEC cells assessed as reduction in cell viability; assay type: toxicity, cell-based
[11] = molecular target: NF-kappa-B essential modulator (Homo sapiens, UniProt Q9Y6K9); experiment: Binding affinity to full-length human NEMO (1 to 419 residues) assessed as dissociation constant
Chain of NF-kappa-B essential modulator (Q9Y6K9 whole entry, the tested form may be a part): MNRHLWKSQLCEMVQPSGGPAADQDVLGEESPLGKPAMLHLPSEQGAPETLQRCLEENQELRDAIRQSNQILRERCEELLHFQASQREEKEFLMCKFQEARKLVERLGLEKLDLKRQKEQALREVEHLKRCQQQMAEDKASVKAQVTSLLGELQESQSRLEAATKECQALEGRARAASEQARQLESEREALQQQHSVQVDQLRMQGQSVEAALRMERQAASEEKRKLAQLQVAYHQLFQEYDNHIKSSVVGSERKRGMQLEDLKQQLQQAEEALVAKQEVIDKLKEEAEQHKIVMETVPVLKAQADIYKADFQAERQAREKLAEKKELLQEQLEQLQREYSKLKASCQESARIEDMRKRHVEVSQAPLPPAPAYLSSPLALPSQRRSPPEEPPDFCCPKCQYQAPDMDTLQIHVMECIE

[12] = Cmax in rat plasma at 5 mg/kg, po; assay type: ADME, organism-based; set-up: dose 5 mg/kg, route po
[13] = AUC (0 to infinity) in rat plasma at 5 mg/kg, po; assay type: ADME, organism-based; set-up: time infinity, dose 5 mg/kg, route po

Compound: c1ccc(CN2CC[Si]3(CCCc4ccccc43)CC2)cc1
- Ratio Ki [1]: 221

Compound: CC1(C)CCC(C)(C)c2cc3c(cc21)CCC1(CCc2cc(C(=O)O)ccc2O1)O3 (stereo in doubt; form 1) [listing 1 of 2 here]
- pEC50 [2]: 6.77

Compound: Cc1[nH]nc2c1C1(C(C#N)=C(N)O2)c2cc(N3CCC(CC(=O)O)CC3)cc(F)c2CC1(C)C (racemic)
- pIC50 [3]: 7.21

Compound: C#CCCCC(=O)OC(C)(C)C1CCC2(CO2)C(OC(=O)N[C@@H](Cc2c[nH]c3ccccc23)C(=O)OCc2ccccc2)C1 (some centres undefined)
- pIC50 (MDA-MB-231): 4.72
- pIC50 [4]: 4.48

Compound: COc1ccc2nc3c(nc2c1)O[C@@H]1C[C@H]2C(=O)N[C@]4(C(=O)NS(=O)(=O)C5(C)CC5)C[C@H]4/C=C\CCCCC[C@H](NC(=O)O[C@@H]4CCC[C@H]4CCCCC3)C(=O)N2C1
- AUC(0-t) at 4 h [5]: 0.77 µM·h
- Vd [6]: 4 L/kg

Compound: CN1C(=O)C2(Cc3ccccc3B(O)O2)c2ccccc21 (centres undefined)
- logP [7]: < 4
- Stability [8]: > 80%

Compound: Cc1[nH]nc2c1[C@@]1(C(C#N)=C(N)O2)c2cc(N3CCC(CC(=O)O)CC3)cc(F)c2CC1(C)C
- pIC50 [3]: 5.60

Compound: O=C1Nc2ccc(Cl)cc2C12Cc1ccccc1B(O)O2 (centres undefined)
- logP [7]: < 4
- Stability [8]: > 80%

Compound: NC1CCC2(CCCC2)CC1
- pIC50 (Influenza A virus): 5.48

Compound: CC1(C)CCC(C)(C)c2cc3c(cc21)CCC1(CCc2cc(C(=O)O)ccc2O1)O3 (stereo in doubt; form 1) [listing 2 of 2 here]
- Efficacy ([9]; filed as agonist): 54%

Compound: O=C1Nc2cc(C(F)(F)F)ccc2C12Cc1ccccc1B(O)O2 (centres undefined)
- logP [7]: < 4
- Stability [8]: > 80%

Compound: CC1(C)CCC(C)(C)c2cc3c(cc21)CCC1(CCc2cc(C(=O)O)ccc2O1)O3 (racemic) [listing 1 of 2 here]
- pEC50 [2]: 6.14

Compound: COc1ccc(Cn2nnc3c2[C@]2(CC[C@H]3OC(=O)NC(C)C)CO2)cc1
- pEC50 [10]: 7.03

Compound: CC1(C)CCC(C)(C)c2cc3c(cc21)CCC1(CCc2cc(C(=O)O)ccc2O1)O3 (stereo in doubt; form 2) [listing 1 of 2 here]
- pEC50 [2]: 5.92

Compound: NC1CC[Si]2(CCCC2)CC1
- pIC50 (Influenza A virus): 5.11

Compound: c1ccc(CN2CCC3(CCCc4ccccc43)CC2)cc1
- Ratio Ki [1]: 22

Compound: Cc1[nH]nc2c1[C@]1(C(C#N)=C(N)O2)c2cc(N3CCC(CC(=O)O)CC3)cc(F)c2CC1(C)C
- pIC50 [3]: 7.37

Compound: CC1(C)CCC(C)(C)c2cc3c(cc21)CCC1(CCc2cc(C(=O)O)ccc2O1)O3 (stereo in doubt; form 2) [listing 2 of 2 here]
- Efficacy [9]: 26%

Compound: O=C1Nc2ccc(F)cc2C12Cc1ccccc1B(O)O2 (centres undefined)
- logP [7]: < 4
- Stability [8]: > 80%

Compound: Cc1ccc([C@@H]2[C@H]3C=C(C=O)[C@@H](c4ccc(C)cc4)[C@H]([N+](=O)[O-])[C@@H]3C[C@@]23C(=O)N(C)c2ccccc23)cc1
- pKd [11]: 7.10

Compound: COc1ccc2nc3c(nc2c1)O[C@@H]1C[C@H]2C(=O)N[C@]4(C(=O)NS(=O)(=O)C5(C)CC5)C[C@H]4/C=C\CCCCC[C@H](NC(=O)O[C@@H]4CCC[C@H]4CCCCC3)C(=O)N2C1.[K+]
- Cmax [12]: 70 nM
- AUC(0-inf) [13]: 2.4 µM·h

Compound: Cc1ccc([C@@H]2[C@H]3C=C(C=O)[C@@H](c4ccc(C)cc4)[C@H]([N+](=O)[O-])[C@@H]3C[C@]23C(=O)N(C)c2ccccc23)cc1
- pKd [11]: 6.72

Compound: O=C1Nc2ccccc2C12Cc1ccccc1B(O)O2 (centres undefined)
- logP [7]: < 4
- Stability [8]: > 80%

Compound: CC1(C)CCC(C)(C)c2cc3c(cc21)CCC1(CCc2cc(C(=O)O)ccc2O1)O3 (racemic) [listing 2 of 2 here]
- Efficacy ([9]; filed as agonist): 53%

Compound: O=C1Nc2cc(Cl)ccc2C12Cc1ccccc1B(O)O2 (centres undefined)
- logP [7]: < 4
- Stability [8]: > 80%
